{
  "source": "patent US5292892A",
  "about": "“Anti-bacterial compound and pharmaceutical compositions thereof” (Sankyo Company, Limited, priority 1991, dated 1994)",
  "key": {"[1]": {"test_system": "Mycoplasma hyosynoviae S-16", "assay": "Antimycoplasmal activity (MIC)", "type": "cell-based", "conditions": "S16, 120 h, Mucin PPLO agar medium, 15% horse serum, 37° C., 5 days, slightly aerobic, 0.005 ml of 10^5 CFU/ml", "protocol": "(§1) Following the procedure as described below, the activity of thiomarinol was assayed against various species of mycoplasma.\nM. hyosynoviae Mucin PPLO* agar medium (15%\nhorse serum supplemented)\n(§2) 37° C., 5 days, slightly aerobic\n(§3) (BBL gas pack method [cultivation\n(§4) in disposable CO2 generator from\n(§5) Becton Dickinson Microbiology\n(§6) Systems, Cockeysville, MD 2103\n*PPLO ( -- Pleuro -- Pneumonia- -- Like\nPPLO Broth without CV (Difco)\nMucin bacteriological (Difco)\nAgar Noble (Difco) 12 g\n25% Fresh yeast extract 50 ml"}, "Mycoplasma bovis Donetta": {"test_system": "Mycoplasma bovis Donetta", "assay": "Antimycoplasmal activity (MIC)", "type": "cell-based", "conditions": "Mycoplasmopsis bovis, 120 h; Chanock medium, 20% horse serum; 37° C., 5 days, slightly aerobic; 0.005 ml of 10^5 CFU/ml"}, "[2]": {"test_system": "Mycoplasma synoviae WVU1853", "assay": "Antimycoplasmal activity (MIC)", "type": "cell-based", "conditions": "Mycoplasmopsis synoviae, WVU1853, 120 h; Frey medium, 12% swine serum; 37° C., 5 days, slightly aerobic; 0.005 ml of 10^5 CFU/ml", "protocol": "as §1\nM. synoviae Frey medium [prepared as de-\nscribed in Am. J. Vet. Res., --29,\nas §2, §3, §4, §5, §6"}, "Escherichia coli 609": {"test_system": "Escherichia coli 609", "assay": "MIC, agar medium dilution method", "type": "cell-based", "conditions": "nutrient agar", "protocol": "(§7) The minimum inhibitory concentration (MIC) of thiomarinol, given as μg/ml, against gram-positive and gram-negative bacteria was determined by the agar medium dilution method, using a nutrient agar medium (Product of Eiken Chemical Co., Ltd.)."}, "[3]": {"test_system": "Pseudomonas aeruginosa 1001", "assay": "MIC, agar medium dilution method", "type": "cell-based", "conditions": "nutrient agar", "protocol": "as §7"}, "[4]": {"test_system": "Staphylococcus aureus 56R", "assay": "MIC, agar medium dilution method", "type": "cell-based", "conditions": "nutrient agar", "protocol": "as §7"}, "[5]": {"test_system": "Enterococcus faecalis 681", "assay": "MIC, agar medium dilution method", "type": "cell-based", "conditions": "nutrient agar", "protocol": "as §7"}, "Morganella morganii 1510": {"test_system": "Morganella morganii 1510", "assay": "MIC, agar medium dilution method", "type": "cell-based", "conditions": "nutrient agar", "protocol": "as §7"}, "Salmonella enteritidis": {"test_system": "Salmonella enteritidis", "assay": "MIC, agar medium dilution method", "type": "cell-based", "conditions": "Salmonella enterica, nutrient agar", "protocol": "as §7"}, "[6]": {"test_system": "Staphylococcus aureus 209P", "assay": "MIC, agar medium dilution method", "type": "cell-based", "conditions": "nutrient agar", "protocol": "as §7"}, "Serratia marcescens 1184": {"test_system": "Serratia marcescens 1184", "assay": "MIC, agar medium dilution method", "type": "cell-based", "conditions": "nutrient agar", "protocol": "as §7"}, "[7]": {"test_system": "Staphylococcus aureus 535 (MRSA)", "assay": "MIC, agar medium dilution method", "type": "cell-based", "conditions": "nutrient agar", "protocol": "as §7"}, "[8]": {"test_system": "Klebsiella pneumoniae 806", "assay": "MIC, agar medium dilution method", "type": "cell-based", "conditions": "nutrient agar", "protocol": "as §7"}, "Escherichia coli NHIJ": {"test_system": "Escherichia coli NHIJ", "assay": "MIC, agar medium dilution method", "type": "cell-based", "conditions": "nutrient agar", "protocol": "as §7"}, "[9]": {"test_system": "Pseudomonas aeruginosa N07", "assay": "MIC, agar medium dilution method", "type": "cell-based", "conditions": "nutrient agar", "protocol": "as §7"}, "Proteus vulgaris 1420": {"test_system": "Proteus vulgaris 1420", "assay": "MIC, agar medium dilution method", "type": "cell-based", "conditions": "nutrient agar", "protocol": "as §7"}, "Enterobacter cloacae 963": {"test_system": "Enterobacter cloacae 963", "assay": "MIC, agar medium dilution method", "type": "cell-based", "conditions": "nutrient agar", "protocol": "as §7"}, "[10]": {"test_system": "Klebsiella pneumoniae 846 (R)", "assay": "MIC, agar medium dilution method", "type": "cell-based", "conditions": "nutrient agar, (R) strain", "protocol": "as §7"}, "[11]": {"test_system": "Mycoplasma gallisepticum S-6", "assay": "Antimycoplasmal activity (MIC)", "type": "cell-based", "conditions": "Mycoplasmoides gallisepticum, S6, 120 h; Chanock medium, 20% horse serum; 37° C., 5 days, slightly aerobic; 0.005 ml of 10^5 CFU/ml"}, "Solubility": {"assay": "Solubility", "type": "physicochemical"}, "[12]": {"test_system": "Mycoplasma gallisepticum PG-31", "assay": "Antimycoplasmal activity (MIC)", "type": "cell-based", "conditions": "Mycoplasmoides gallisepticum, PG31, 120 h; Chanock medium, 20% horse serum; 37° C., 5 days, slightly aerobic; 0.005 ml of 10^5 CFU/ml"}, "[13]": {"test_system": "Mycoplasma gallisepticum K-1", "assay": "Antimycoplasmal activity (MIC)", "type": "cell-based", "conditions": "Mycoplasmoides gallisepticum, K1, 120 h; Chanock medium, 20% horse serum; 37° C., 5 days, slightly aerobic; 0.005 ml of 10^5 CFU/ml"}},
  "data": [
    {"smiles": "C/C(=C\\C(=O)OCCCCCCCC(=O)Nc1c2sscc-2[nH]c1=O)C(O)C1OCC(C/C=C/C(C)C(C)O)C(O)C1O", "note": "(single isomer, unassigned) [thiomarinol]", "values": [
      {"measurement": "MIC", "setting": "[1]", "value": 0.025, "unit": "µg/mL"},
      {"measurement": "MIC", "setting": "Mycoplasma bovis Donetta", "value": 0.0125, "unit": "µg/mL"},
      {"measurement": "MIC", "setting": "[2]", "value": "< 0.006", "unit": "µg/mL"},
      {"measurement": "MIC", "setting": "Escherichia coli 609", "value": 0.8, "unit": "µg/mL"},
      {"measurement": "MIC", "setting": "[3]", "value": 0.2, "unit": "µg/mL"},
      {"measurement": "MIC", "setting": "[4]", "value": "≤ 0.01", "unit": "µg/mL"},
      {"measurement": "MIC", "setting": "[5]", "value": 0.02, "unit": "µg/mL"},
      {"measurement": "MIC", "setting": "Morganella morganii 1510", "value": 6.2, "unit": "µg/mL"},
      {"measurement": "MIC", "setting": "Salmonella enteritidis", "value": 0.4, "unit": "µg/mL"},
      {"measurement": "MIC", "setting": "[6]", "value": "≤ 0.01", "unit": "µg/mL"},
      {"measurement": "MIC", "setting": "Serratia marcescens 1184", "value": 3.1, "unit": "µg/mL"},
      {"measurement": "MIC", "setting": "[7]", "value": "≤ 0.01", "unit": "µg/mL"},
      {"measurement": "MIC", "setting": "[8]", "value": 0.8, "unit": "µg/mL"},
      {"measurement": "MIC", "setting": "Escherichia coli NHIJ", "value": 0.8, "unit": "µg/mL"},
      {"measurement": "MIC", "setting": "[9]", "value": 0.4, "unit": "µg/mL"},
      {"measurement": "MIC", "setting": "Proteus vulgaris 1420", "value": 0.05, "unit": "µg/mL"},
      {"measurement": "MIC", "setting": "Enterobacter cloacae 963", "value": 1.5, "unit": "µg/mL"},
      {"measurement": "MIC", "setting": "[10]", "value": 0.2, "unit": "µg/mL"},
      {"measurement": "MIC", "setting": "[11]", "value": 0.1, "unit": "µg/mL"},
      {"measurement": "Solubility", "setting": "Solubility; alcohols (methanol, ethanol, propanol, butanol), dimethyl sulfoxide, dimethylformamide, chloroform, ethyl acetate, acetone, ethyl ether", "value": "Soluble"},
      {"measurement": "Solubility", "setting": "Solubility; hexane", "value": "insoluble"},
      {"measurement": "Solubility", "setting": "Solubility; water", "value": "insoluble"},
      {"measurement": "MIC", "setting": "[12]", "value": 0.05, "unit": "µg/mL"},
      {"measurement": "MIC", "setting": "[13]", "value": 0.05, "unit": "µg/mL"}
    ]}
  ]
}
